The record followed here is patent publication US9840507B2, “5,6-dihydro-imidazo[1,2-a]pyrazin-8-ylamine derivatives useful as inhibitors of beta-secretase (BACE)” (Janssen Pharmaceutica, NV, priority 2010, dated 2017).

Assay [1] relates to Aβtotal produced and secreted into the medium of human neuroblastoma SKNBE2 cells. The experiment in a line: Cellular αlisa assay in SKNBE2 cells, Aβtotal. It counts as cell-based. The conditions noted are these: SKNBE2 cells expressing hAPP695, incubated for 18 hours; for IC50: Homo sapiens, SKNBE2, 18 h, read-out: Cellular αlisa assay in SKNBE2 cells Aβtotal pIC50 (converted). As for the experimental part: (§1) In two αlisa assays the levels of Aβtotal and Aβ42 produced and secreted into the medium of human neuroblastoma SKNBE2 cells are quantified. The assay is based on the human neuroblastoma SKNBE2 expressing the wild type Amyloid Precursor Protein (hAPP695). The compounds are diluted and added to these cells, incubated for 18 hours and then measurements of Aβ42 and Aβtotal are taken. Aβtotal and Aβ42 are measured by sandwich αlisa. αlisa is a sandwich assay using biotinylated antibody AbN/25 attached to streptavidin coated beads and antibody Ab4G8 or cAb42/26 conjugated acceptor beads for the detection of Aβtotal and Aβ42 respectively. In the presence of Aβtotal or Aβ42, the beads come into close proximity. The excitation of the Donor beads provokes the release of singlet oxygen molecules that triggers a cascade of energy transfer in the Acceptor beads, resulting in light emission. Light emission is measured after 1 hour incubation (excitation at […] and emission at 615 nm).
(§2) A best-fit curve is fitted by a minimum sum of squares method to the plot of % Controlmin versus compound concentration.
(§3) LC=Median of the low control values
(§4) =Low control: cells preincubated without compound, without biotinylated Ab in the αlisa
(§5) HC=Median of the High control values
(§6) =High Control: cells preincubated without compound % Effect=100−[(sample−LC)/(HC−LC)*100] % Control=(sample/HC)*100% % Controlmin=(sample−LC)/(HC−LC)*100

Assay [2] has as its system Aβ42 produced and secreted into the medium of human neuroblastoma SKNBE2 cells. The experiment in a line: Cellular αlisa assay in SKNBE2 cells, Aβ42. Type of assay: cell-based. The following applies: SKNBE2 cells expressing hAPP695, incubated for 18 hours; for IC50: Homo sapiens, SKNBE2, 18 h, read-out: Cellular αlisa assay in SKNBE2 cells Aβ42 pIC50 (converted). Here is the method: as §1, §2, §3, §4, §5, §6

For assay [3], the target named is T1, recombinant BACE1 protein (Homo sapiens, UniProt P56817).
T1 construct: recombinant BACE1 protein in a final concentration of 1 μg/ml
T1 sequence (P56817 46-501): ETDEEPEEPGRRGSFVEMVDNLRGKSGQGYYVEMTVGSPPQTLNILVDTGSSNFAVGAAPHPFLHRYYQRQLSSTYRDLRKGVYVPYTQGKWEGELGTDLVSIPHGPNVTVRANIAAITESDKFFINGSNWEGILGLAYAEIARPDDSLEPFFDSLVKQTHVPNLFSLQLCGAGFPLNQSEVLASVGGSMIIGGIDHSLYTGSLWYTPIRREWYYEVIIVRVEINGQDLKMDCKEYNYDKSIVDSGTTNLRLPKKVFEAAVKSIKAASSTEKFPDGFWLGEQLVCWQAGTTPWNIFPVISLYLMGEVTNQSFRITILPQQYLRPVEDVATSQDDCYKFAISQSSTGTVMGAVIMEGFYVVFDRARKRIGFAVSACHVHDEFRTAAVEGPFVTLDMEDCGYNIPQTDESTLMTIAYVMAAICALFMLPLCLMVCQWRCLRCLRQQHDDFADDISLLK
The experiment in a line: Biochemical FRET based assay. The conditions noted are these: recombinant BACE1 1 μg/ml, 10 μm substrate, 120 minutes, room temperature, pH 5.0; for IC50: read-out: Biochemical FRET based assay pIC50 (converted).
Description: This assay is a Fluorescence Resonance Energy Transfer Assay (FRET) based assay. The substrate for this assay is an APP derived 13 amino acids peptide that contains the ‘Swedish’ Lys-Met/Asn-Leu mutation of the amyloid precursor protein (APP) β-secretase cleavage site. This substrate also contains two fluorophores: (7-methoxycoumarin-4-yl) acetic acid (Mca) is a fluorescent donor with excitation wavelength at 320 nm and emission at 405 nm and 2,4-Dinitrophenyl (Dnp) is a proprietary quencher acceptor. […] Upon cleavage by BACE1, the fluorophore Mca is separated from the quenching group Dnp, restoring the full fluorescence yield of the donor. The increase in fluorescence is linearly related to the rate of proteolysis (Koike H et al. J. Biochem. 1999, 126, 235-242).
Briefly in a 384-well format recombinant BACE1 protein in a final concentration of 1 μg/ml is incubated for 120 minutes at room temperature with 10 μm substrate in incubation buffer (40 mM Citrate buffer pH 5.0, 0.04% PEG, 4% DMSO) in the absence or presence of compound. Next the amount of proteolysis is directly measured by fluorescence measurement at T=0 and T=120 (excitation at 320 nm and emission at 405 nm).
as §3
=Low control: Reaction without enzyme
as §5
=High Control: Reaction with enzyme % Effect=100−[(sample−LC)/(HC−LC)*100] % Control=(sample/HC)*100% % Controlmin=(sample−LC)/(HC−LC)*100

Regarding `C[C@@]1(c2cc(NC(=O)c3ccc(F)cn3)ccc2F)Cn2c(Cl)cnc2C(N)=N1` [Compound 58], the IC50 in assay [1] was 20 nM; in assay [2], 20 nM; in assay [3], 75.9 nM.
In the case of `C[C@@]1(c2cc(NC(=O)c3ncc(Cl)cc3Cl)ccc2F)Cn2ccnc2C(N)=N1` [Compound 19], the values for the IC50 in assay [1], in assay [2] and in assay [3] were 9.77 nM, 11 nM and 49 nM, respectively.
The matching figures for `COc1ccc(C(=O)Nc2ccc(F)c([C@]3(C)Cn4ccnc4C(N)=N3)c2)nc1` [Compound 17]: 16.6 nM, 17.4 nM and 107 nM.
Regarding `C[C@@]1(c2cc(NC(=O)c3ccn(C(F)F)n3)ccc2F)Cn2cc(C(F)F)nc2C(N)=N1` [Compound 51], in assay [3], the IC50 was 162 nM.
As for `NC1=NC(c2cc(NC(=O)c3ccc(F)cn3)ccc2F)(C(F)F)Cn2ccnc21` (stereo not drawn) [Compound 29], the “Cellular αlisa assay in SKNBE2 cells Aβtotal pIC50” value in assay [1] is given as less than 5. Moreover, the “Cellular αlisa assay in SKNBE2 cells Aβ42 pIC50” value in assay [2] was less than 5. The IC50 in assay [3] was more than 30200 nM.
With `NC1=NC(c2cc(NC(=O)c3ccc(F)cn3)ccc2F)(C(F)F)Cn2ccnc21` (stereo not drawn) [Compound 28], the “Cellular αlisa assay in SKNBE2 cells Aβtotal pIC50” value in assay [1] is reported as 6.19. Also, in assay [2], the “Cellular αlisa assay in SKNBE2 cells Aβ42 pIC50” value is 6.17. For the same compound, the IC50 in assay [3] was 295 nM.
Regarding `CC1(c2cc(NC(=O)c3ccc(Cl)cn3)ccc2F)Cn2ccnc2C(N)=N1` (single isomer, unassigned) [Compound 8], the IC50 in assay [1] is 11 nM; in assay [2], 12.3 nM.
In the case of `Cc1nc(C(=O)Nc2ccc(F)c([C@]3(C)Cn4ccnc4C(N)=N3)c2)c(C)o1` [Compound 46], the IC50 in assay [1] is 83.2 nM; in assay [2], 89.1 nM; in assay [3], 380 nM.
For the compound `C[C@@]1(c2cccc(-c3cncnc3)c2)Cn2ccnc2C(N)=N1` [Compound 4, (R)-6-methyl-6-(3-pyrimidin-5-yl-phenyl)-5,6-dihydro-imidazo[1,2-a]pyrazin-8-ylamine], the IC50 in assay [1] and in assay [2] was 7760 nM throughout. Besides, in assay [3], the “Biochemical FRET based assay pIC50” value is listed as more than 4.52.
`C[C@@]1(c2cc(NC(=O)c3ccsn3)ccc2F)Cn2ccnc2C(N)=N1` [Compound 45]: the IC50 was 67.6 nM in assay [1], 66.1 nM in assay [2] and 427 nM in assay [3].
`Cc1nc(C(=O)Nc2ccc(F)c([C@]3(C)Cn4cc(C(F)(F)F)nc4C(N)=N3)c2)c(C(F)(F)F)o1` [Compound 39]: the IC50 is 158 nM in assay [1], 158 nM in assay [2] and 269 nM in assay [3].
With `C[C@@]1(c2cc(NC(=O)c3ccc(F)cn3)ccc2F)Cn2cc(C#N)nc2C(N)=N1` [Compound 56, (R)—N-{3-[8-amino-2-cyano-6-methyl-5,6-dihydroimidazo[1,2-a]pyrazin-6-yl]-4-fluorophenyl}-5-fluoropyridine-2-carboxamide], the IC50 in assay [1] is 21.9 nM; in assay [2], 20.9 nM; in assay [3], 83.2 nM.
Taken in the same sequence, the figures for `C[C@@]1(c2cc(NC(=O)c3ccc(C#N)cn3)ccc2F)Cn2cc(C(F)F)nc2C(N)=N1` [Compound 49] were 9.33 nM, 8.51 nM and 97.7 nM.
With `C[C@@]1(c2cc(NC(=O)c3ncc(Cl)cc3Cl)ccc2F)Cn2cc(C(F)(F)F)nc2C(N)=N1` [Compound 25], the values for the IC50 in assay [1], in assay [2] and in assay [3] were 17 nM, 21.9 nM and 46.8 nM, respectively.
On to `C[C@@]1(c2cc(NC(=O)c3ccn(C(F)F)n3)ccc2F)Cn2cc(C(F)(F)F)nc2C(N)=N1` [Compound 37], for which the IC50 was 16.6 nM in assay [1] and 15.8 nM in assay [2].
Turning to `C[C@@]1(c2cc(NC(=O)c3ccc(F)cn3)ccc2F)Cn2c(C#N)cnc2C(N)=N1` [Compound 66, (R)—N-{3-[8-amino-3-cyano-6-methyl-5,6-dihydroimidazo[1,2-a]pyrazin-6-yl]-4-fluorophenyl}-5-fluoropyridine-2-carboxamide], the IC50 in assay [3] was 63.1 nM.
